Laboratory results published in article PMC4038024 (Clinical pharmacology and therapeutics, 2012).
Entries after “also recorded” stand apart in the source; their conditions may differ. Read-outs that look alike come from different tables or passages of the source.

Assays:
[1] = for mean AUCmetabolite/AUCparent ratio, fold higher in CYP3A5 expressors than nonexpressors: blood, after oral tacrolimus; for CLurinary (based on AUCblood) / CLurinary (based on AUCplasma): 0 to 96-hour collection; for total amount of tacrolimus excreted in urine as unchanged drug over 96 hours: oral administration
[2] = system: mouse mixed lymphocyte reaction; details: compared with tacrolimus; cited from earlier work
CYP3A5 [3] = target: CYP3A5 (Homo sapiens, UniProt P20815); test: Metabolic clearance by CYP3A5; details: compared with tacrolimus; Supplemental Figure 1
[4] = isolated perfused rat kidney; cited from earlier work
CYP3A5 [5] = details: cited from earlier work
clinical = details: human, 5 mg; for half-life: blood, po, single oral dose 5 mg; for concentration at 96 h: whole blood, oral, Clast, blood concentration at 96 hour
[6] = male rats, tacrolimus orally for four days; cited from earlier work
[7] = In vitro unbound fraction of tacrolimus in plasma and whole blood; type: in vitro ADME; details: whole blood
[8] = set-up: species or system human; details: for k(2,1) (glomerular filtration of tacrolimus) / k(3,1) (secretion from efferent arteriole to renal epithelium): derived from estimated parameters; for fub (exchangeable fraction of tacrolimus in blood during glomerular filtration): ordinary least-squares estimation; for Kp: human, kidney/blood, oral, 5 mg, Kp,kidney (apparent tissue-to-blood partitioning coefficient), empirical Bayesian estimation

Sequence of CYP3A5 (Homo sapiens, UniProt P20815) (P20815 whole entry, the tested form may be a part): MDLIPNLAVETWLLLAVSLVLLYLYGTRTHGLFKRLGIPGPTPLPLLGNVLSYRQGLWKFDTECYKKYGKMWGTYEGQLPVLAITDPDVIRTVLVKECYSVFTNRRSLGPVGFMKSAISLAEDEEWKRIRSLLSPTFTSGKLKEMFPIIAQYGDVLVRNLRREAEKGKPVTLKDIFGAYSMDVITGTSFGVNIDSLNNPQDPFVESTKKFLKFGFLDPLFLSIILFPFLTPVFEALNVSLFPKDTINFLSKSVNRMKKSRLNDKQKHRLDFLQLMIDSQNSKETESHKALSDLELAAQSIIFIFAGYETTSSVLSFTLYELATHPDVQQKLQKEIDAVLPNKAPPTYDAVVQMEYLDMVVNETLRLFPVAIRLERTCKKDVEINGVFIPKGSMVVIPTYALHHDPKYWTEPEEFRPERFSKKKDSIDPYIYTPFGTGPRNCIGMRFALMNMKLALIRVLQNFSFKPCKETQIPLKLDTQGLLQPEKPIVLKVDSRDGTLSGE

## C=CCC1C=C(C)CC(C)CC(OC)C2OC(O)(C(=O)C(=O)N3CCCCC3C(=O)OC(C(C)=CC3CCC(O)C(OC)C3)C(C)C(O)CC1=O)C(C)CC2O (centres unmarked) [13-DMT, 13-O-desmethyl tacrolimus]
[1]
  mean AUCmetabolite/AUCparent ratio, fold higher in CYP3A5 expressors than nonexpressors: 2.0 fold

## C=CCC1C=C(C)CC(C)CC(O)C2OC(O)(C(=O)C(=O)N3CCCCC3C(=O)OC(C(C)=CC3CCC(O)C(OC)C3)C(C)C(O)CC1=O)C(C)CC2OC (centres unmarked) [15-DMT, 15-O-desmethyl tacrolimus]
[1]; CYP3A5 expressors vs nonexpressors
  renal excretion in the two genotyped groups: similar
[1]
  mean AUCmetabolite/AUCparent ratio, fold higher in CYP3A5 expressors than nonexpressors: did not differ; also recorded: similar

## C=CCC1C=C(C)CC(C)CC(OC)C2OC(O)(C(=O)C(=O)N3CCCCC3C(=O)OC(C(C)=CC3CCC(O)C(O)C3)C(C)C(O)CC1=O)C(C)CC2OC (centres unmarked) [31-DMT, 31-O-desmethyl tacrolimus]
[2]
  immunosuppressive activity: same immunosuppressive activity as tacrolimus
[1]
  mean AUCmetabolite/AUCparent ratio, fold higher in CYP3A5 expressors than nonexpressors: 2.5 fold
CYP3A5 [3]
  metabolic clearance by CYP3A5: comparable to that of tacrolimus

## CCOC(=O)[C@H](CCc1ccccc1)N[C@@H](C)C(=O)N1CCC[C@H]1C(=O)O [enalapril]
[4]
  urinary clearance following inhibition of hydrolysis to enalaprilate by paraoxon: increased

## Cc1ncc2n1-c1ccc(Cl)cc1C(c1ccccc1F)=NC2 [midazolam]
CYP3A5 [5]
  hydroxylation activity, fold higher in CYP3A5*1/*3 than CYP3A5*3/*3 kidney microsomes: 18 fold

## C=CC[C@@H]1/C=C(\C)C[C@H](C)C[C@H](OC)[C@H]2O[C@@](O)(C(=O)C(=O)N3CCCC[C@H]3C(=O)O[C@H](/C(C)=C/[C@@H]3CC[C@@H](O)[C@H](OC)C3)[C@H](C)[C@@H](O)CC1=O)[C@H](C)C[C@@H]2OC [tacrolimus]
CYP3A5 [5]
  hydroxylation activity, fold higher in CYP3A5*1/*3 than CYP3A5*3/*3 kidney microsomes: 18 fold
clinical; t1/2, CYP3A5 expressors (N=12)
  half-life: 29.9 ± 4.8 h
clinical; t1/2, CYP3A5 nonexpressors (N=12)
  half-life: 31.7 ± 4.3 h
clinical; CYP3A5 expressors (N=12)
  concentration at 96 h: 0.2 ± 0.1 ng/mL
clinical; CYP3A5 nonexpressors (N=12)
  concentration at 96 h: 0.4 ± 0.1 ng/mL
[1]; CYP3A5 expressors (N=12)
  CLurinary (based on AUCblood): 2.01 ± 0.57 mL/h
  CLurinary (based on AUCplasma): 50.15 ± 13.67 mL/h
  CLurinary/eGFR (based on AUCblood): 0.028 ± 0.012%
  CLurinary/eGFR (based on AUCplasma): 0.58 ± 0.28%
[1]; CYP3A5 nonexpressors (N=12)
  CLurinary (based on AUCblood): 3.15 ± 1.69 mL/h
  CLurinary (based on AUCplasma): 97.71 ± 59.89 mL/h
  CLurinary/eGFR (based on AUCblood): 0.048 ± 0.032%
  CLurinary/eGFR (based on AUCplasma): 1.48 ± 1.10%
[1]; CYP3A5 expressors
  total amount of tacrolimus excreted in urine as unchanged drug over 96 hours: 271.6 ± 147.4 ng
[1]; CYP3A5 nonexpressors
  total amount of tacrolimus excreted in urine as unchanged drug over 96 hours: 642.6 ± 349.6 ng
[1]; based on blood AUC
  mean apparent urinary tacrolimus clearance, lower in CYP3A5 expressors compared to nonexpressors: 36%
[1]; based on plasma AUC
  mean apparent urinary tacrolimus clearance, lower in CYP3A5 expressors compared to nonexpressors: 49%
[1]; expressors vs nonexpressors
  AUC0–96 Difference (%): −35.2%
  AUC0–inf Difference (%): −36.5%
  CL/F Difference (%): 54.8%
  CLurinary (based on AUCblood) Difference (%): −36.2%
  CLurinary (based on AUCplasma) Difference (%): −48.7%
  CLurinary/eGFR (based on AUCblood) Difference (%): −41.7%
  Clast Difference (%): −46.2%
[1]; mean, expressors vs nonexpressors
  oral tacrolimus clearance (CL/F), fold higher in CYP3A5 expressors compared to nonexpressors: 1.6 fold
[1]; nonexpressors vs expressors
  Clast (blood concentration at 96 hours), fold higher in CYP3A5 nonexpressors compared to expressors: 1.9 fold
[6]
  Kp,kid: 12.2
[7]
  fraction unbound: 0.00078 ± 0.00026
[8]
  ER greater than fub′: ~ 400 fold
[8]; CYP3A5 expressors
  ER (extraction ratio of tacrolimus from the efferent arteriole): 5.1 ± 3.0%
  k(0,3) (rate constant, CYP3A5-mediated intra-epithelial metabolism): 0.55 ± 0.52 h⁻¹
  k(1,3) (back flux from renal epithelium to efferent arteriole): 0.34 ± 0.05 h⁻¹
  k(2,3) (secretion from renal epithelium to tubular lumen): 0.0009 ± 0.0005 h⁻¹
  k(3,2) (reabsorption from tubular fluid back to renal epithelium): 0.091 ± 0.063 h⁻¹
  k(2,1) (glomerular filtration of tacrolimus): 0.94 ± 0.76 mL/h
  k(3,1) (secretion from efferent arteriole to renal epithelium): 2368 ± 1404 mL/h
  fub (exchangeable fraction of tacrolimus in blood during glomerular filtration): 0.014 ± 0.015%
  Kp: 12.1 ± 0.3
[8]; CYP3A5 nonexpressors
  ER (extraction ratio of tacrolimus from the efferent arteriole): 4.3 ± 4.7%
  k(1,3) (back flux from renal epithelium to efferent arteriole): 0.36 ± 0.39 h⁻¹
  k(2,3) (secretion from renal epithelium to tubular lumen): 0.0012 ± 0.0008 h⁻¹
  k(3,2) (reabsorption from tubular fluid back to renal epithelium): 0.106 ± 0.057 h⁻¹
  k(2,1) (glomerular filtration of tacrolimus): 0.77 ± 0.51 mL/h
  k(3,1) (secretion from efferent arteriole to renal epithelium): 1800 ± 1734 mL/h
  fub (exchangeable fraction of tacrolimus in blood during glomerular filtration): 0.011 ± 0.006%
  Kp: 23.4 ± 0.04
[8]; all subjects
  in vivo fub′ (exchangeable fraction in blood) estimated from modeling: 0.012 ± 0.011%
[8]; steady-state tissue-to-blood partitioning ratio
  Kp,kidney in CYP3A5 expressors as % of that calculated for nonexpressors: ~50%
